Data as given in EP1214397B1, “METHOD FOR THE SELECTIVE PROTECTION OF PROLIFERATING NORMAL CELLS AND THE SELECTIVE ERADICATION OF TUMOR CELLS HAVING AN INACTIVE P53 PATHWAY” (UNIVERSITA' DEGLI STUDI DI ROMA "LA SAPIENZA", priority 1999, dated 2001).
Several values for one entry are separate records, joined by “and”; a condition that tells them apart may be missing. Identical values can stand only once.

Assays:
[1] = system: human lung fibroblasts transformed with E7 (HF E7); test: Nuclei number state after cytochalasin D (Example 2); format: cell-based; settings: 400 nM CD for 72 h
Description: (§1) Each cell culture was plated on 35mm plates at a 1×10^4cells/plate density, under the following conditions considered herein as standard conditions. Cells were grown on a plastic substrate (Falcon-BD), in a culture medium made of Dulbecco's modified Eagle's Medium supplemented with 2mM L-glutamine, antibiotics, 10% fetal bovine serum, at 37°C with 5% CO2 and 90% humidity. The following assays have been therefore carried out.
(§2) In an initial time of 12 hours c.ca (step common also to the other assays herein reported) cells were allowed to grow up, but within a density allowing their proliferation, thus ensuring the utmost reliability of the assay result, that otherwise could be altered by cells arrested for reasons other than compound administration. After this first step the following administrations have been carried out.
E6 is in fact an oncogene, the product thereof being capable of sequestering and inhibiting the p53 function, whereas E7 is another oncogene, the product thereof being capable of sequestering the Rb function. This assay series accordingly allows in fact to extend also to human cells the growth arrest, at the binucleate stage, by CD, as due to an active p53 pathway in normal cells, and at the same time it confirms the non-implication of Rb therein.
After the initial time of 12 h c.ca (see above) the following assays have been in particular carried out.
In a third assay series 400 nM CD for 72 h (T0-T72) and 0.11% DMSO for 72 h (T0-T72) as a control thereof, have been administered to human lung fibroblasts transformed with E7 (HF E7).

[2] = system: mouse embryofibroblast (MEF) cells knock out for Rb; test: Nuclei number state after cytochalasin D in knock-out cells (Example 1); format: cell-based; settings: 400 nM CD for 72 h
Excerpt: (§3) In order to verify which molecular factors cause multinucleation in tumor cells and thereby identify tumor cells and tumor forms where binucleation/multinucleation differential status is applicable to, an assay series directed to verify such forms to be ascribable to the loss of one or more genes regulating cell functions, has been carried out. Such assays have been in particular carried out on cells deriving from mice knock-out for the sole Rb (retinoblastoma), p21 or p53 function.
as §1
as §2, with “After this first step the following administrations have been carried out.” left out
(§4) The administration was carried out on strictly proliferating cells. After treatment, cells were processed and analyzed.

[3] = system: mouse embryofibroblast (MEF) cells knock out for p21; test: as above; format: cell-based; settings: 400 nM CD for 72 h
Excerpt: as §3, §1
as §2, with “After this first step the following administrations have been carried out.” left out
as §4

MEF = test: Nuclei number state after cytochalasin D, wild-type control cells (Example 1); format: cell-based, mouse; settings: CD for 72 h
Excerpt: as §3, §1
as §2, with “After this first step the following administrations have been carried out.” left out
as §4

dermal fibroblasts (MDF) = test: as above; format: cell-based, mouse; settings: CD for 72 h
Excerpt: as §3, §1
as §2, with “After this first step the following administrations have been carried out.” left out
as §4

C3H10T1/2v-src/v-myc [4] = test: Focus-forming assay, culture of tumor cells alone (Examples 3, 9); format: cell-based, mouse; settings: C3H10T1/2 v-src/v-myc alone, 5×10^2 cells per plate, percentage of treated with respect to untreated (=100), 400 nM CD T0-T84, class B drug T24-T72 (40 µM 3FT, 80 µM 2ClAd, 40µM Ara C)
L cells = test: Colony formation assay, monoculture (Example 4); format: cell-based; settings: 5×10^2 cells, 400 nM CD T0-T84, 40 µM 3FT T24-T72
Excerpt: In order to quantify the effects of the combined CD/3FT use of the above example 3, the first, second and third assay series described in example 4 has been carried out on monocultures at a cell density allowing countable colonies.
The culture conditions, compounds concentrations, and treatments are the same described in example 3, with the exception of the cell system used have been for the first assay series a monoculture of C3H 10T1/2 cells at the clonal densities of 1×10^3, 5×10^3 and 1×10^4, for the second assay series a monoculture of C3H 10T1/2v-src/v-myc cells at the clonal densities of 5×10^2, 1×10^3 and 5×10^3, and for the third assay series a monoculture of L cells at the clonal densities of 5×10^2, 1×10^3 and 5×10^3.

C3H10T1/2v-src/v-myc [5] = test: Inhibition of cytodieresis and DNA replication, nucleation state and BrdU uptake (Examples 5, 7); format: cell-based, mouse
Description: (§5) Each cell culture was plated on 35mm plates at a 1×10^4cells/plate density, under the standard conditions described in example 1.
(§6) In a control assay series thereof the sole BrdU and 0.11% DMSO, have been administered to C3H10T1/2 and in C3H10T1/2/v-src-/myc cells respectively, for 24h (T0-T24) as a control of the proliferation phase.
(§7) In each of the above assays CD and BrdU concentrations are the same, namely 400 nM and […] respectively. The administration was carried out on strictly proliferating cells. The contemporaneous measurement of BrdU uptake and %S has ensured the highest stringency of results on DNA replication. Percentage of mononucleate, binucleate, tri/tetranucleate and with >4 nuclei resulting cells has been also measured. After treatment, cells have been processed and analyzed as reported in reference 18.
(§8) In particular the first assay series of example 5 has been carried out with 650 nM Latrunculin B, 700 nM Jasplakinolide, and 100 nM condramide B instead of CD. The second assay series of example 5 has been carried out with 16 µM 13,14,21,22-tetrahydrocytochalasin B, 2 µM 21,22-dihydrocytochalasin B, 1 µM deoxyphomin, 4 µM Cytochalasin F (CF) 8 µM Cytochalasin V (CV) , and 0,5 µM CD as a control on MEF cells.

C3H10T1/2 = test: as above; format: cell-based, mouse
Description: as §5, §6, §7, §8

C3H 10T1/2(v-src/v-myc) = test: Colony forming assay, interference with 3FT toxic effects on tumor cells (Example 6); format: cell-based, mouse; settings: 5×10^2 cell/60mm; 400 nM CD or 3 µM CB T0-T84; 30 µM 3FT T24-T72; untreated 111
Description: In order to verify any possible interference between CD and 3FT actions on tumor cells, a series of colony forming assays has been carried out on C3H 10T1/2(v-src/v-myc).
The cells have been therefore plated on 60mm plates at a 5×10^2 cell/60mm density, at the culture conditions described in example 3, and the initial time of 12 hours have been subjected to the following treatments.
After the above administrations, cells were treated as described in example 3.

normal cells = test: Dose/response: concentration arresting normal cells in the intermitotic phase (CAP); format: cell-based; settings: standard conditions
Description: It generally results in cell cycle arrest at the binucleate stage in at least 40% of class A compounds treated proliferating normal cells, using the minimal drug concentration (i.e. sufficient to reversible induce its effects, on target cells, without causing significant damage, experimentally defined by dose/response curves), giving the above result without significant toxicity and an incubation time generally ranging from 12 to 48 hours depending on cell type.
As to the CAP parameter, the corresponding value is a class A compound concentration causing the arrest of at least the 40% of normal cells in the intermitotic stage; such concentration is experimental deduced by dose/response experiments that define the appropriate value range for different cell types and compounds.
For the above class A compounds, under standard conditions this value ranges within 1 nM to 40 µM concentrations.. […]
In the light of these tests, the CAP and CACT values to be assigned to several class A compounds as the concentration range yielding the cytodieresis arrest, and, within said concentration range, the value of the minimum concentration required for attaining this effect, forming the preferred embodiment, has been determined. […]

In the case of `C=C1[C@@H](C)[C@H]2[C@H](Cc3ccccc3)NC(=O)[C@]23[C@H](OC(C)=O)/C=C/[C@@](C)(O)C(=O)[C@@H](C)C/C=C/[C@H]3[C@@H]1O` [cytochalasin D], the “%>4N” value ([1]; >4 nuclei cells) was 1%, the “% 2N” value ([1]; binucleate cells) was 42% and the “%1N” value ([1]; mononucleate cells) was 54%. For the same molecule, the “%3-4N” value ([1]; tri-tetranucleate cells) was 3%, the nuclei number state [2] was “arrest into a binucleate stage” and the nuclei number state [3] was “arrest into a binucleate stage”. The nuclei number state (MEF) was “arrest into a binucleate stage”, the nuclei number state (dermal fibroblasts (MDF)) was “arrest into a binucleate stage” and the “number of transformation foci” value (C3H10T1/2v-src/v-myc [4]) was “slight decrease”. The “number of transformation foci” value (C3H10T1/2v-src/v-myc [4]; listed as CD) was 24 and 28, the number of colonies (L cells) was 55 and the “% 2N” value (C3H10T1/2v-src/v-myc [5]; C3H10T1/2v-src/v-myc, drug T0-T48, concentration printed with the drug (CD 400 nM)) was 35%. The “percentage of cells entering in S phase (%S)” value (C3H10T1/2v-src/v-myc [5]; transformed cells, 400 nM CD T0-T48, BrdU T24-48) was 88%, the “three-tetranucleate or even with >4 nuclei cells” value (C3H10T1/2v-src/v-myc [5]; tumor cells, 400 nM CD T0-T48) was 47% and the “% 2N” value (C3H10T1/2; C3H10T1/2, drug T0-T48, concentration printed with the drug (CD 400 nM)) was 67%. For the same molecule, the “plated cells still capable of uptaking the BrdU (reversibility)” value (C3H10T1/2; CD T0 to T48, rest T48 to T72, BrdU T72 to T96, control 97%) was 96%, the “mononucleate cells after drug removal (reversibility)” value (C3H10T1/2; CD T0 to T48, rest T48 to T72, BrdU T72 to T96, control 98%) was 92% and the “three-tetranucleate or even with >4 nuclei cells” value (C3H10T1/2; normal cells, 400 nM CD T0-T48) was 6%. The “percentage of cells entering in S phase (%S)” value (C3H10T1/2; normal cells, 400 nM CD T0-T48, BrdU T24-48) was 23%, the Colonies (C3H 10T1/2(v-src/v-myc)) was 46 and the “CAP, minimum functional concentration for arrest in intermitotic phase of normal cells” value (normal cells) was 400 nM.
